{"source": "paper PMC3226492", "about": "“Isomer Profiles of Perfluorochemicals in Matched Maternal, Cord, and House Dust Samples: Manufacturing Sources and Transplacental Transfer” (Environmental Health Perspectives, 2011)", "key": {"[1]": {"assay": "Transplacental transfer efficiency (TTE): cord serum at delivery divided by maternal serum concentration, present study", "assay_type": "in vivo, human", "settings": "for TTE calculated from cord:maternal serum concentrations, arithmetic mean / TTE calculated from cord:maternal serum concentrations, maximum / TTE calculated from cord:maternal serum concentrations, median / TTE calculated from cord:maternal serum concentrations, minimum: cord serum at delivery / maternal serum at 15 weeks of gestation; for Mean cord:maternal serum concentration: Present study"}, "[2]": {"assay": "Total PFC concentrations in maternal and cord sera by HPLC-MS/MS", "assay_type": "in vivo, human", "settings": "for mean concentration in cord serum: cord serum at delivery", "method": "Blood collection. Samples (n = 20) analyzed in this study are a subset of the Chemicals, Health and Pregnancy (CHirP) cohort recruited in 2007–2008 in Vancouver (BC, Canada) ([Webster et al. 2011]). All participants provided informed consent. Laboratory personnel collected blood samples from pregnant volunteers in Vancouver at 15 weeks of gestation, and samples of cord blood (n = 20) were collected at delivery. After serum separation, all samples were stored at –80°C. Ethical clearance was obtained from the research ethics boards of the University of British Columbia, the University of Alberta, Health Canada, and the three participating hospitals.\nSerum preparation. The method of [Kuklenyik et al. (2004)] was adapted for the extraction of PFCs from serum using a Rapid Trace system (Caliper Life Sciences, Hopkinton, MA, USA). The solid-phase extraction cartridge (Oasis-HLB, Waters, Milford, MA, USA; 60 mg/3 mL) was conditioned with 2 mL methanol followed by 2 mL of 0.1 M formic acid. Serum was prepared for extraction by mixing 3 mL of 0.1 M formic acid with 1.0 mL serum. After the addition of mass-labeled internal standards (10 ng each), the mixture was vortexed and sonicated for 20 min. Prepared serum was added to the column and washed successively with 3 mL of 0.1 M formic acid, 6 mL of 50% 0.1 M formic acid/50% methanol, and 1 mL of 1% ammonium hydroxide. The cartridge was drained by vacuum, and PFCs were eluted with 1.0 mL of 1% ammonium hydroxide in acetonitrile. The eluate was concentrated to 100 μL followed by the addition of 200 μL of 90% 20 mM acetic acid in 10% methanol. Method blanks containing calf serum, a calf serum sample spiked at 0.5 ng/mL of each PFC, and a human serum sample spiked at 10 ng/mL were analyzed with the study samples.\nTotal PFC analysis. For total PFC concentrations, separation was by HPLC on a 150-mm Synergi Hydro-RP C-18 column (Phenomenex, Torrance, CA, USA). Gradient elution at 600 μL/min used A [20 mM ammonium acetate (pH 4) in water] and B (methanol) mobile phases. Initial conditions were 60% A for 1 min, ramped to 20% A by 3 min, a 5-min hold, an increase to 100% B by 8.5 min, and a hold until 14 min, at which time initial conditions were reestablished. MS/MS data were collected on an Applied Biosystems API 3000 mass spectrometer (Applied Biosystems, Carlsbad, CA, USA) using electrospray ionization in negative-ion mode [for mean recoveries of total PFCs in serum and dust, see Supplemental Material, Table 1 (http://dx.doi.org/10.1289/ehp.1003265)]."}, "[3]": {"settings": "cited from earlier work"}}, "note": "Like-named read-outs stand apart in the source and are kept apart here.", "data": [{"smiles": "O=C(O)C(F)(F)C(F)(F)C(F)(F)C(F)(C(F)(F)F)C(F)(F)C(F)(F)F", "note": "(stereo not shown) [5m-PFOA]", "values": [{"measurement": "TTE calculated from cord:maternal serum concentrations, arithmetic mean", "setting": "[1]", "result": 0.86}, {"measurement": "TTE calculated from cord:maternal serum concentrations, maximum", "setting": "[1]", "result": 2.26}, {"measurement": "TTE calculated from cord:maternal serum concentrations, median", "setting": "[1]", "result": 0.54}, {"measurement": "TTE calculated from cord:maternal serum concentrations, minimum", "setting": "[1]", "result": 0.09}, {"measurement": "TTE calculated from cord:maternal serum concentrations, maximum", "setting": "[1]; listed as 5m-PFOA", "result": "> 1.0"}]}, {"smiles": "O=S(=O)(O)C(F)(F)C(F)(F)C(F)(F)C(F)(F)C(F)(C(F)(F)F)C(F)(F)C(F)(F)F", "note": "(stereo not shown) [5m-PFOS]", "values": [{"measurement": "TTE calculated from cord:maternal serum concentrations, arithmetic mean", "setting": "[1]", "result": 0.53}, {"measurement": "TTE calculated from cord:maternal serum concentrations, maximum", "setting": "[1]", "result": 0.93}, {"measurement": "TTE calculated from cord:maternal serum concentrations, median", "setting": "[1]", "result": 0.52}, {"measurement": "TTE calculated from cord:maternal serum concentrations, minimum", "setting": "[1]", "result": 0.25}]}, {"smiles": "O=S(=O)(O)C(F)(C(F)(F)F)C(F)(F)C(F)(F)C(F)(F)C(F)(F)C(F)(F)C(F)(F)F", "note": "(stereo not shown) [1m-PFOS]", "values": [{"measurement": "TTE calculated from cord:maternal serum concentrations, arithmetic mean", "setting": "[1]", "result": 0.87}, {"measurement": "TTE calculated from cord:maternal serum concentrations, maximum", "setting": "[1]", "result": 1.24}, {"measurement": "TTE calculated from cord:maternal serum concentrations, median", "setting": "[1]", "result": 0.88}, {"measurement": "TTE calculated from cord:maternal serum concentrations, minimum", "setting": "[1]", "result": 0.36}]}, {"smiles": "O=S(=O)(O)C(F)(F)C(F)(F)C(F)(F)C(F)(F)C(F)(F)C(F)(F)F", "note": "[Total PFHxS, perfluorohexane sulfonate]", "values": [{"measurement": "TTE calculated from cord:maternal serum concentrations, arithmetic mean", "setting": "[1]", "result": 0.41}, {"measurement": "TTE calculated from cord:maternal serum concentrations, maximum", "setting": "[1]", "result": 0.56}, {"measurement": "TTE calculated from cord:maternal serum concentrations, median", "setting": "[1]", "result": 0.38}, {"measurement": "TTE calculated from cord:maternal serum concentrations, minimum", "setting": "[1]", "result": 0.29}, {"measurement": "mean concentration in cord serum", "setting": "[2]", "result": 0.7, "unit": "ng/mL"}, {"measurement": "concentration at 15 weeks of gestation", "setting": "[2]; female, human, maternal serum, 15 weeks of gestation", "result": 1.7, "unit": "ng/mL"}]}, {"smiles": "O=S(=O)(O)C(F)(F)C(F)(F)C(F)(F)C(F)(F)C(F)(F)C(F)(C(F)(F)F)C(F)(F)F", "note": "[Iso- PFOS]", "values": [{"measurement": "TTE calculated from cord:maternal serum concentrations, arithmetic mean", "setting": "[1]", "result": 0.36}, {"measurement": "TTE calculated from cord:maternal serum concentrations, maximum", "setting": "[1]", "result": 0.60}, {"measurement": "TTE calculated from cord:maternal serum concentrations, median", "setting": "[1]", "result": 0.34}, {"measurement": "TTE calculated from cord:maternal serum concentrations, minimum", "setting": "[1]", "result": 0.09}]}, {"smiles": "O=S(=O)(O)C(F)(F)C(F)(F)C(F)(F)C(F)(F)C(F)(F)C(F)(F)C(F)(F)C(F)(F)F", "note": "[n-PFOS, linear perfluorooctane sulfonate]", "values": [{"measurement": "TTE calculated from cord:maternal serum concentrations, arithmetic mean", "setting": "[1]", "result": 0.33}, {"measurement": "TTE calculated from cord:maternal serum concentrations, maximum", "setting": "[1]", "result": 0.58}, {"measurement": "TTE calculated from cord:maternal serum concentrations, median", "setting": "[1]", "result": 0.30}, {"measurement": "TTE calculated from cord:maternal serum concentrations, minimum", "setting": "[1]", "result": 0.10}]}, {"smiles": "O=S(=O)(O)C(F)(F)C(F)(F)C(F)(F)C(F)(F)C(F)(F)C(F)(F)C(F)(F)C(F)(F)F", "note": "[Total PFOS, perfluorooctane sulfonate]", "values": [{"measurement": "Mean cord:maternal serum concentration", "setting": "[1]; Canada, 2007, n 20, maternal serum sampled in the second trimester", "result": 0.33}, {"measurement": "Mean cord:maternal serum concentration", "setting": "[1]; TTE adjusted from 15 weeks to time of delivery (~ 40 weeks) using data from Monroy et al. (2008)", "result": 0.36}, {"measurement": "TTE calculated from cord:maternal serum concentrations, arithmetic mean", "setting": "[1]", "result": 0.33}, {"measurement": "TTE calculated from cord:maternal serum concentrations, maximum", "setting": "[1]", "result": 0.53}, {"measurement": "TTE calculated from cord:maternal serum concentrations, median", "setting": "[1]", "result": 0.31}, {"measurement": "TTE calculated from cord:maternal serum concentrations, minimum", "setting": "[1]", "result": 0.20}, {"measurement": "mean concentration in cord serum", "setting": "[2]", "result": 1.8, "unit": "ng/mL"}, {"measurement": "mean concentration in maternal serum", "setting": "[2]; maternal serum, 15 weeks of gestation", "result": 5.5, "unit": "ng/mL"}, {"measurement": "Mean cord:maternal serum concentration", "setting": "[3]; Canada, 2004–2005, n 101, ref Monroy et al. 2008", "result": 0.45}, {"measurement": "Mean cord:maternal serum concentration", "setting": "[3]; Denmark, 1996–2002, n 50, maternal serum sampled in the first trimester, ref Fei et al. 2007", "result": 0.29}, {"measurement": "Mean cord:maternal serum concentration", "setting": "[3]; Denmark, 1996–2002, n 50, maternal serum sampled in the second trimester, ref Fei et al. 2007", "result": 0.34}, {"measurement": "Mean cord:maternal serum concentration", "setting": "[3]; Faroe Islands, 2000, n 12, ref Needham et al. 2011", "result": 0.34}, {"measurement": "Mean cord:maternal serum concentration", "setting": "[3]; Germany, 2003, n 11, ref Midasch et al. 2007", "result": 0.60}, {"measurement": "Mean cord:maternal serum concentration", "setting": "[3]; Germany, 2007–2009, n 27, ref Fromme et al. 2010", "result": 0.30}, {"measurement": "Mean cord:maternal serum concentration", "setting": "[3]; Japan, 2003, n 15, ref Inoue et al. 2004", "result": 0.32}, {"measurement": "Mean cord:maternal serum concentration", "setting": "[3]; Korea, 2007, n 20, ref Kim et al. 2011", "result": 0.36}, {"measurement": "Mean cord:maternal serum concentration", "setting": "[3]; South Africa, 2005–2006, n 58, ref Hanssen et al. 2010", "result": 0.45}]}, {"smiles": "O=C(O)C(F)(F)C(F)(F)C(F)(C(F)(F)F)C(F)(F)C(F)(F)C(F)(F)F", "note": "(stereo not shown) [4m-PFOA]", "values": [{"measurement": "TTE calculated from cord:maternal serum concentrations, arithmetic mean", "setting": "[1]", "result": 0.64}, {"measurement": "TTE calculated from cord:maternal serum concentrations, maximum", "setting": "[1]", "result": 1.29}, {"measurement": "TTE calculated from cord:maternal serum concentrations, median", "setting": "[1]", "result": 0.68}, {"measurement": "TTE calculated from cord:maternal serum concentrations, minimum", "setting": "[1]", "result": 0.09}, {"measurement": "TTE calculated from cord:maternal serum concentrations, maximum", "setting": "[1]; listed as 4m-PFOA", "result": "> 1.0"}]}]}
